# Assay results taken from PMC10700139 (Nature, 2023).
# Where “and” joins values, the source holds several entries; their conditions need not be identical. Identical values can stand only once.
# Key:
# [1] = Stability of isolated 9 in deuterated solvents (1H NMR, LC-MS); format: physicochemical; details: resuspended in CDCl3 or CD3OD, 1H NMR over time
# Procedure: Also, on drying of our sample from CDCl3, we noted a colour change from yellow/brown to red. Loss of our compound was confirmed through LC–MS analysis. However, we observed that during the course of purification, a compound pertaining to an oxidation of 9 ([…]; equal to 9 + oxygen) accumulated to high concentrations. […] As such, we purified this compound using the same strategy outlined above (yield of about 3 mg) and determined a putative structure (proposed 9′) through NMR analysis. For 9′, deuterated ACN (CD3CN) was used as a solvent and spectra were collected on a Varian Inova 600 MHz NMR spectrometer at room temperature (Supplementary Figs. 12–18).
# PtCAL-1a/PtCAL-2a = target: T1, PtCAL-1a/PtCAL-2a (Phlegmariurus tetrastichus, UniProt P0DXL1+P0DXL3); assay: In vitro reactions with apoplastic PtCAL-1a/PtCAL-2a (formation of 9, decarboxylation of 3, Zn chelator); format: biochemical
# T1 construct: N-terminal signal peptide[58], which would be cleaved during processing and trafficking of these proteins; made in house; host or cells: Nicotiana benthamiana leaves (Agrobacterium transient co-expression, pEAQ-HT), concentrated apoplast extract
# T1 sequence (P0DXL1 22-280): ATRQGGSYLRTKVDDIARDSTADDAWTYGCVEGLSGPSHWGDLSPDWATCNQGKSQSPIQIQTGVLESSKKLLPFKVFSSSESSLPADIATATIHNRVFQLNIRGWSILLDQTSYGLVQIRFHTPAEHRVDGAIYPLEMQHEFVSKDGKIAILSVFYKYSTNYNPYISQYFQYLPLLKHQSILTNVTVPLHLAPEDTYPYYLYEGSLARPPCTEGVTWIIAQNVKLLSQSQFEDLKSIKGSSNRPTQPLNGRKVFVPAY
# T1 sequence (P0DXL3 24-284): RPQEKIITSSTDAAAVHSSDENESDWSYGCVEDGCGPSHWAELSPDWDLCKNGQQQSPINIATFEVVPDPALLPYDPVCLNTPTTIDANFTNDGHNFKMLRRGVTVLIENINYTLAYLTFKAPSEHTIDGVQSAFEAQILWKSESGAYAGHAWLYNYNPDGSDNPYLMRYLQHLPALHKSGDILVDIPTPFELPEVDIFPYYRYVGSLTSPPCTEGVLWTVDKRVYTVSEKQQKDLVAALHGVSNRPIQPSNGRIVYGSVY
# Excerpt: The three CAL proteins identified in this study have predicted N-terminal signal peptides, which were identified using the TargetP-2.0 server (https://services.healthtech.dtu.dk/service.php?TargetP-2.0)[58]. […] To assess this possibility, CAL genes with or without C-terminal 6xHis tags were transiently expressed in N. benthamiana, as described above. Each CAL gene was expressed individually; also, PtCAL-1a and PtCAL-2a were transiently co-expressed in the same leaf because we had found them to cofunction in Lycopodium alkaloid biosynthesis. At 4 days after Agrobacterium infiltration, apoplast protein extracts were isolated using the infiltration–centrifugation method, much as previously described. Two leaves per reaction were excised from the plant and submerged in ice-cold apoplast extraction buffer (100 mM MES, 300 mM NaCl, pH 5.5) in an open-capped 50 ml Falcon tube and these tubes were placed in a plastic vacuum chamber attached to a Welch Model 2025 vacuum pump. The chamber was brought down to full vacuum and after 2 min at this pressure, the vacuum was slowly released to allow for buffer to infiltrate the leaf apoplastic space. Buffer-infiltrated leaves were carefully removed from the Falcon tubes, blotted dry with paper towels and were then rolled into Parafilm and placed in a plungerless 5 ml plastic syringe. The syringe was placed in a 15 ml Falcon tube and this was then centrifuged at 1,000g and 4 °C for 10 min to collect apoplast extract. The resulting extract was centrifuged at 10,000g and 4 °C for 15 min to pellet any larger cellular debris and the supernatant was concentrated using an Amicon Ultra-4 Centrifugal Filter Unit (10 kDA MWCO, MilliporeSigma UFC501024). Protein concentrations were measured using the BIO-RAD Protein Assay or Bradford assay (Abcam 119216) and adjusted with apoplast extraction buffer to a final concentration between 0.5 and 1.5 mg ml^−1. Aliquots of the extracts were snap frozen in liquid nitrogen and stored at −80 °C.
# Reactions with CAL-enriched apoplast were routinely performed in low-pH potassium phosphate buffer (50 mM potassium phosphate, 100 mM NaCl, pH 5.9) at a volume of 20 µl. For PtCAL-1a/PtCAL-2a, these reactions contained approximately 1.4 µg of apoplast protein for each CAL (final concentration of 0.07 µg µl^−1). Control reactions used apoplast from leaves expressing only one CAL or with apoplast generated from GFP-expression N. benthamiana leaves. The requisite substrates for this reaction were generated through the activities of in vitro PtPIKS-1 and PtCYP782C1 enzyme reactions. […]. To generate 3 and 4 as potential substrates, 1 µg of previously purified PtPIKS-1 enzyme[23] and 150 µM 1 and 300 µM malonyl-CoA were added directly to the CAL reaction mixtures. After thorough mixing, reactions were incubated at room temperature. An alternative route for producing 3 and 4 independently of thioester intermediates was achieved by mixing stocks of 1 (10 mM in water) and 2 (10 mM in water; always prepared fresh to minimize compound decomposition) in equal proportion, followed by incubation at room temp for 1–2 h, as these two substrates can non-enzymatically condense to yield 3 (which can spontaneously decarboxylate to produce 4). A 2 µl aliquot of this mixture was then added as a component of the PtCAL-1a/PtCAL-2a enzyme reaction (20 µl total reaction volume) in addition to the PtCYP782C1 microsomal reaction mixture. After predesignated incubation times, reactions were quenched by diluting tenfold into ACN with 0.1% formic acid.
# To evaluate the potential decarboxylation of β-keto acid substrates by PtCAL-1/PtCAL-2 and PtCAL-3, only 3 or 2, respectively, were added as substrate. PtCAL-1/PtCAL-2 reactions were quenched by diluting aliquots tenfold into ACN with 0.1% formic acid and were subsequently analysed through HILIC LC–MS. PtCAL-3 reactions were quenched by mixing aliquots with an equal volume of water with 0.2% formic acid and were then analysed through C18 LC–MS. […]
structure (smiles),measurement,setting,value
CC1CC2=NCCCC2=C(CC2CCCCN2)C1 (centres unmarked) [compound 9],stability of isolated compound,[1],relatively unstable
same,ion abundance of 9 (m/z 164.1434) over time,"PtCAL-1a/PtCAL-2a; PtCAL-1a/PtCAL-2a +3, +8, +PDCA, +Zn, 0.5 hrs (ED 4i)",127782 and 135642 and 127803
same,ion abundance of 9 (m/z 164.1434) over time,"PtCAL-1a/PtCAL-2a; PtCAL-1a/PtCAL-2a +3, +8, +PDCA, +Zn, 2 hrs (ED 4i)",473171 and 458012 and 448492
same,ion abundance of 9 (m/z 164.1434) over time,"PtCAL-1a/PtCAL-2a; PtCAL-1a/PtCAL-2a +3, +8, +PDCA, +Zn, 6 hrs (ED 4i)",1066834 and 1174532 and 1104641
same,ion abundance of 9 (m/z 164.1434) over time,"PtCAL-1a/PtCAL-2a; PtCAL-1a/PtCAL-2a +3, +8, +PDCA, +Zn, 24 hrs (ED 4i)",1783309 and 1828274 and 1979732
same,ion abundance of 9 (m/z 164.1434) over time,"PtCAL-1a/PtCAL-2a; PtCAL-1a/PtCAL-2a +3, +8, +PDCA, 0.5 hrs (ED 4i)",126896 and 128709 and 118410
same,ion abundance of 9 (m/z 164.1434) over time,"PtCAL-1a/PtCAL-2a; PtCAL-1a/PtCAL-2a +3, +8, +PDCA, 2 hrs (ED 4i)",460080 and 448051 and 514634
same,ion abundance of 9 (m/z 164.1434) over time,"PtCAL-1a/PtCAL-2a; PtCAL-1a/PtCAL-2a +3, +8, +PDCA, 6 hrs (ED 4i)",1133647 and 1079904 and 1109219
same,ion abundance of 9 (m/z 164.1434) over time,"PtCAL-1a/PtCAL-2a; PtCAL-1a/PtCAL-2a +3, +8, +PDCA, 24 hrs (ED 4i)",1692906 and 1937168 and 1863327
same,ion abundance of 9 (m/z 164.1434) over time,"PtCAL-1a/PtCAL-2a; PtCAL-1a/PtCAL-2a +3, +8, 0.17 hrs",5042 and 4513 and 5355
same,ion abundance of 9 (m/z 164.1434) over time,"PtCAL-1a/PtCAL-2a; PtCAL-1a/PtCAL-2a +3, +8, 0.5 hrs (ED 4i)",123276 and 137673 and 112913
same,ion abundance of 9 (m/z 164.1434) over time,"PtCAL-1a/PtCAL-2a; PtCAL-1a/PtCAL-2a +3, +8, 2 hrs (ED 4i)",446630 and 485400 and 412047
same,ion abundance of 9 (m/z 164.1434) over time,"PtCAL-1a/PtCAL-2a; PtCAL-1a/PtCAL-2a +3, +8, 6 hrs (ED 4i)",1143938 and 1142219 and 1013243
same,ion abundance of 9 (m/z 164.1434) over time,"PtCAL-1a/PtCAL-2a; PtCAL-1a/PtCAL-2a +3, +8, 8.00 hrs",777915 and 631565 and 1080330
same,ion abundance of 9 (m/z 164.1434) over time,"PtCAL-1a/PtCAL-2a; PtCAL-1a/PtCAL-2a +3, +8, 20.00 hrs",2280194 and 1799167 and 2350932
same,ion abundance of 9 (m/z 164.1434) over time,"PtCAL-1a/PtCAL-2a; PtCAL-1a/PtCAL-2a +3, +8, 24.00 hrs",2573277 and 1958546 and 2242168
same,ion abundance of 9 (m/z 164.1434) over time,"PtCAL-1a/PtCAL-2a; PtCAL-1a/PtCAL-2a +3, +8, 24 hrs (ED 4i)",1814580 and 1825623 and 1787378
same,ion abundance of 9 (m/z 164.1434) over time,"PtCAL-1a/PtCAL-2a; PtCAL-1a/PtCAL-2a +3, +8, +PtCAL-3, 0.17 hrs",8935 and 8139 and 7454
same,ion abundance of 9 (m/z 164.1434) over time,"PtCAL-1a/PtCAL-2a; PtCAL-1a/PtCAL-2a +3, +8, +PtCAL-3, 0.50 hrs",15312 and 11348 and 14678
same,ion abundance of 9 (m/z 164.1434) over time,"PtCAL-1a/PtCAL-2a; PtCAL-1a/PtCAL-2a +3, +8, +PtCAL-3, 2.00 hrs",132103 and 73247 and 110763
same,ion abundance of 9 (m/z 164.1434) over time,"PtCAL-1a/PtCAL-2a; PtCAL-1a/PtCAL-2a +3, +8, +PtCAL-3, 4.00 hrs",477805 and 480278 and 470081
same,ion abundance of 9 (m/z 164.1434) over time,"PtCAL-1a/PtCAL-2a; PtCAL-1a/PtCAL-2a +3, +8, +PtCAL-3, 8.00 hrs",1471863 and 934058 and 1569447
same,ion abundance of 9 (m/z 164.1434) over time,"PtCAL-1a/PtCAL-2a; PtCAL-1a/PtCAL-2a +3, +8, +PtCAL-3, 24.00 hrs",2382612 and 1957618 and 2845113
